# Columns and labels:
# MMP1 = MMP1 gene expression by qPCR in CoCl2-induced hypoxic keratinocytes; format: cell-based; settings: keratinocytes (HEKn) treated with 200 μM CoCl2, 2.5 µM EGCG, cultured for 18 hours
# Description: (§1) First, keratinocytes (HEKn) (onza, Switzerland) were treated with 200 μM CoCl2 to induce a hypoxic environment. After that, the expression level of hypoxia-inducible factor 1-alpha (HIF1A) that was known to be expressed under hypoxia was compared with that before the treatment with CoCl2 (CTL in FIG. 1) to confirm that the expression level of HIF1A increased compared with that before the treatment with CoCl2 (FIG. 1), and thus skin (keratinocytes) damaged by hypoxia (hereinafter referred to as hypoxic keratinocytes) was prepared. Thereafter, in order to verify the effect of the strain isolated in Example 1 on the alleviation of skin damage due to hypoxia, the hypoxic keratinocytes were treated with the extract prepared in Example 2 at various concentrations and then cultured for 18 hours. […] Specifically, 10 μL of universal master mix (Taqman 2X Universal PCR mix, Applied Biosystems, Cat. No. 4304437) and 1 μL of TaqMan probe were added, 5 μL of CDNA was added to obtain a total volume of 20 μL, and PCR was performed using the Applied biosystem 7500 fast real time PCR system and the provided standard protocol. The expression of MMP1, an aging-related gene, and COX2, an inflammation-related gene, was examined through qPCR, and the results are illustrated in FIGS. 2 and 3. At this time, EGCG was used as Comparative Example. […]
# COX2 = COX2 gene expression by qPCR in CoCl2-induced hypoxic keratinocytes; format: cell-based; settings: keratinocytes (HEKn) treated with 200 μM CoCl2, EGCG at 2.5 ppm, cultured for 18 hours
# Description: as §1
structure (smiles),measurement,setting,value
O=C(O[C@@H]1Cc2c(O)cc(O)cc2O[C@@H]1c1cc(O)c(O)c(O)c1)c1cc(O)c(O)c(O)c1 [EGCG],"inhibition of MMP1 overexpressed by hypoxia (expression level of MMP1, FIG. 2)",MMP1,cannot inhibit MMP1 overexpressed by hypoxia
same,"inhibition of COX2 overexpressed by hypoxia (expression level of COX2, FIG. 3)",COX2,cannot inhibit expression of COX2 overexpressed by hypoxia

# Source: patent US20240269204A1, “COMPOSITION FOR ALLEVIATING SKIN DAMAGE CAUSED BY HYPOXIA CONTAINING SACCHAROMYCES CEREVISIAE STRAIN” (AMOREPACIFIC CORPORATION, priority 2023, published 2024)
